Laboratory results reported in article PMC10301922, “Anti-Oxidant, Anti-Mutagenic Activity and Safety Evaluation of Antrocin” (Toxics, 2023).
Entries after “also recorded” stand apart in the source; their conditions may differ. Read-outs that look alike come from different tables or passages of the source.

What was measured:
[1] = test system: Salmonella typhimurium TA102; assay: Ames test (plate incorporation), TA102
Sprague Dawley rats = assay: 28-day oral toxicity test: clinical signs, mortality, overall result
[2] = test system: Salmonella typhimurium TA1535; assay: Ames test (plate incorporation), TA1535
[3] = test system: Salmonella typhimurium TA100
[4] = test system: Salmonella typhimurium TA98
[5] = TA98, with S9, mutagen 2-AA 25 μg/plate, antrocin 0.025 mg/plate
[6] = TA98, with S9, mutagen 2-AA 25 μg/plate, antrocin 0.05 mg/plate
[7] = TA98, with S9, mutagen 2-AA 25 μg/plate, antrocin […]
[8] = TA98, without S9, mutagen 4-NQO 2.5 μg/plate, antrocin 0.025 mg/plate
[9] = TA98, without S9, mutagen 4-NQO 2.5 μg/plate, antrocin 0.05 mg/plate
[10] = TA98, without S9, mutagen 4-NQO 2.5 μg/plate, antrocin […]

For `C=C1CC[C@H]2C(C)(C)CCC[C@@]23C(=O)OC[C@@H]13` [Antrocin, (-)-Antrocin], the “Number of Revertant” value ([1]; TA102, with S9, 0.003125 mg/plate) was 352.0 ± 8.5 Colony/Plate, the “Number of Revertant” value ([1]; TA102, with S9, 0.00625 mg/plate) was 326.7 ± 5.9 Colony/Plate and the “Number of Revertant” value ([1]; TA102, with S9, 0.025 mg/plate) was 327.3 ± 7.7 Colony/Plate. For the same compound, the “Number of Revertant” value ([1]; TA102, with S9, 0.05 mg/plate) was 322.0 ± 6.2 Colony/Plate, the “Number of Revertant” value ([1]; TA102, without S9, 0.003125 mg/plate) was 245.7 ± 10.4 Colony/Plate and the “Number of Revertant” value ([1]; TA102, without S9, 0.00625 mg/plate) was 246.0 ± 16.4 Colony/Plate. For the same compound, the “Number of Revertant” value ([1]; TA102, without S9, 0.025 mg/plate) was 278.3 ± 4.5 Colony/Plate, the “Number of Revertant” value ([1]; TA102, without S9, 0.05 mg/plate) was 270.0 ± 11.2 Colony/Plate and the “toxic effects according to hematology, serum chemistry, urine analysis, histopathological examinations” value (Sprague Dawley rats; 7.5 or 37.5 mg/kg oral 28 d) was “did not produce any toxic effects”. For the same compound, the “highest dosage with no adverse effect” value (Sprague Dawley rats; 28-day oral toxicity test in rats) was 37.5 mg/kg/day, the “Number of Revertant” value ([2]; TA1535, with S9, 0.003125 mg/plate) was 17.3 ± 0.5 Colony/Plate and the “Number of Revertant” value ([2]; TA1535, with S9, 0.00625 mg/plate) was 15.7 ± 6.1 Colony/Plate. For the same compound, the “Number of Revertant” value ([2]; TA1535, with S9, 0.025 mg/plate) was 18.0 ± 1.6 Colony/Plate, the “Number of Revertant” value ([2]; TA1535, with S9, 0.05 mg/plate) was 14.0 ± 2.4 Colony/Plate and the “Number of Revertant” value ([2]; TA1535, without S9, 0.003125 mg/plate) was 11.7 ± 2.4 Colony/Plate. The “Number of Revertant” value ([2]; TA1535, without S9, 0.00625 mg/plate) was 14.7 ± 4.0 Colony/Plate, the “Number of Revertant” value ([2]; TA1535, without S9, 0.025 mg/plate) was 10.7 ± 1.2 Colony/Plate and the “Number of Revertant” value ([2]; TA1535, without S9, 0.05 mg/plate) was 12.7 ± 2.9 Colony/Plate. The “Number of Revertant” value ([3]; TA100, with S9, 0.003125 mg/plate) was 194.3 ± 5.4 Colony/Plate, the “Number of Revertant” value ([3]; TA100, with S9, 0.00625 mg/plate) was 185.0 ± 6.5 Colony/Plate and the “Number of Revertant” value ([3]; TA100, with S9, 0.025 mg/plate) was 197.0 ± 8.8 Colony/Plate. The “Number of Revertant” value ([3]; TA100, with S9, 0.05 mg/plate) was 195.3 ± 2.9 Colony/Plate, the “Number of Revertant” value ([3]; TA100, without S9, 0.003125 mg/plate) was 170.7 ± 1.2 Colony/Plate and the “Number of Revertant” value ([3]; TA100, without S9, 0.00625 mg/plate) was 169.3 ± 8.2 Colony/Plate. The “Number of Revertant” value ([3]; TA100, without S9, 0.025 mg/plate) was 181.7 ± 5.7 Colony/Plate, the “Number of Revertant” value ([3]; TA100, without S9, 0.05 mg/plate) was 166.7 ± 4.5 Colony/Plate and the bacterial mutagenicity ([3]; preliminary tests, TA100, 100 μg/plate) was “no bacterial mutagenicity”. For the same compound, the “Inhibition (%) of mutagenicity” value [4, 5] was 18.17%, the “Number of Revertant” value [4, 5] was 4959.0 ± 739.1 Colony/Plate and the “Inhibition (%) of mutagenicity” value [4, 6] was 33.67%. For the same compound, the “Number of Revertant” value [4, 6] was 4024.0 ± 251.1 Colony/Plate, the “Inhibition (%) of mutagenicity” value [4, 7] was 6.21% and the “Number of Revertant” value [4, 7] was 5680.3 ± 640.7 Colony/Plate. The antimutagenic agent strength ([4]; TA98, without S9, against direct mutagen 4-NQO) was “strong anti-mutagenic agent; also recorded: very strong anti-mutagenic effect”, the “Inhibition (%) of mutagenicity” value [4, 8] was 51.03% and the “Number of Revertant” value [4, 8] was 67.7 ± 2.5 Colony/Plate. For the same compound, the “Inhibition (%) of mutagenicity” value [4, 9] was 98.62%, the “Number of Revertant” value [4, 9] was 21.7 ± 1.5 Colony/Plate and the “Inhibition (%) of mutagenicity” value [4, 10] was 35.17%. The “Number of Revertant” value [4, 10] was 83.0 ± 3.6 Colony/Plate.
